Measured values as given in patent US12268683B2, “Compounds and methods for synergistic activation of M channels” (THE REGENTS OF THE UNIVERSITY OF CALIFORNIA, priority 2018, dated 2025).
Entries after “also recorded” stand apart in the source; their conditions may differ. Like-named read-outs stand apart in the source and are kept apart here.

Tests used:
KCNQ2/KCNQ3-W265L = KCNQ2/KCNQ3-W265L (Homo sapiens, UniProt O43525+O43526, W265L); test: TEVC of KCNQ2/KCNQ3-W265L channels; assay type: cell-based
Source text: (§1) cRNA transcripts encoding human KCNQ2, KCNQ3, KCNQ4, KCNQ5 (Kv7.2-Kv7.5) were generated by in vitro transcription using the T7 polymerase mMessage mMachine kit (Thermo Fisher Scientific), after vector linearization, from cDNA sub-cloned into plasmids incorporating Xenopus laevis β-globin 5′ and 3′ UTRs flanking the coding region to enhance translation and cRNA stability. cRNA was quantified by spectrophotometry. Mutant KCNQ2 and KCNQ3 cDNAs were generated with site-directed mutagenesis using a QuikChange kit according to the manufacturer's protocol (Stratagene, San Diego, Calif.) and corresponding cRNAs prepared as above. Defolliculated stage V and VI Xenopus laevis oocytes (Ecocyte Bioscience, Austin, Tex.) were injected with KCNQ channel α subunit cRNAs (5-10 ng). The oocytes were incubated at 16° C. in Barth's saline solution (Ecocyte) containing penicillin and streptomycin, with daily washing, for 2-5 days prior to two-electrode voltage-clamp (TEVC) recording.
TEVC recording was performed at room temperature using a OC-725C amplifier (Warner Instruments, Hamden, Conn.) and pClamp8 software (Molecular Devices, Sunnyvale, Calif.) 2-5 days after cRNA injection as described in the section above. The oocytes were placed in a small-volume oocyte bath (Warner) and viewed with a dissection microscope. Unless otherwise stated, chemicals were sourced from Sigma. Bath solution was (in mM): 96 NaCl, 4 KCl, 1 MgCl2, 1 CaCl2, 10 HEPES (pH 7.6). […] The drugs were introduced into the recording bath by gravity perfusion at a constant flow of 1 ml per minute for 3 minutes prior to recording. Pipettes were of 1-2 MΩ resistance when filled with 3 M KCl. Currents were recorded in response to pulses between −80 mV and +40 mV at 20 mV intervals, or a single pulse to +40 mV, from a holding potential of −80 mV, to yield current-voltage relationships, current magnitude, and for quantifying activation rate. Deactivation was recorded at −80 mV after a single pulse to +40 mV, from a holding potential of −80 mV. Electrophysiology data analysis was performed with Clampfit (Molecular Devices) and Graphpad Prism software (GraphPad, San Diego, Calif., USA); values are stated as mean±SD. Raw or normalized tail currents were plotted versus prepulse voltage and fitted with a single Boltzmann function:
As previously described (12), we generated cRNA transcripts encoding human KCNA1, KCNE1, KCNE2, KCNE3, KCNQ1, KCNQ2, KCNQ3, KCNQ4 or KCNQ5 by in vitro transcription using the T7 polymerase mMessage mMachine kit (Thermo Fisher Scientific), after vector linearization, from cDNA sub-cloned into plasmids incorporating Xenopus laevis β-globin 5′ and 3′ UTRs flanking the coding region to enhance translation and cRNA stability. We quantified cRNA by spectrophotometry. […]

KCNQ5 = KCNQ5 (Homo sapiens, UniProt Q9NR82); test: TEVC of homomeric KCNQ5 expressed in Xenopus oocytes; assay type: cell-based
Source text: cRNA transcripts encoding human KCNA1, KCNQ1, KCNQ2, KCNQ3, KCNQ4, or KCNQ5 were generated by in vitro transcription using the T7 polymerase message machine kit (Thermo Fisher Scientific), after vector linearization, from cDNA sub-cloned into plasmids incorporating X. laevis β-globin 5′ and 3′ UTRs flanking the coding region to enhance translation and cRNA stability. cRNA was quantified by spectrophotometry. Mutant cDNAs were generated by site-directed mutagenesis using a QuikChange kit according to manufacturer's protocol (Stratagene, San Diego, Calif.) and corresponding cRNAs prepared as above. Defolliculated stage V and VI X. laevis oocytes (Ecocyte Bioscience, Austin, Tex.) were injected with Kv channel a subunit cRNAs (10 ng total per oocyte). Oocytes were incubated at 16° C. in Barth's saline solution (Ecocyte) containing penicillin and streptomycin, with daily washing, for 3-5 days prior to two-electrode voltage-clamp (TEVC) recording.
TEVC recording was performed at room temperature with an OC-725C amplifier (Warner Instruments, Hamden, Conn.) and pClamp10.2 software (Molecular Devices, Sunnyvale, Calif.) 3-5 days after cRNA injection as described in the section above. Oocytes were placed in a small-volume oocyte bath (Warner) and viewed with a dissection microscope. Chemicals were sourced from Sigma. Bath solution was (in mM): 96 NaCl, 4 KCl, 1 MgCl2, 1 CaCl2. 10 HEPES (pH 7.6). […] MTX (DMSO), sorbic acid (ethanol), and glutaconic acid (molecular grade H2O) were stored at −20° C. as 1 M stocks. Oleamide was stored as a 1 mM stock in ethanol at 4° C. Palmitic acid was conjugated with bovine serum albumin as a 1 mM stock and stored at −20° C. All compounds were diluted to working concentrations each experimental day. All compounds were introduced to the recording bath via gravity perfusion at a constant flow of 1 ml/min for 3 min prior to recording. Pipettes were of 1-2 MΩ resistance when filled with 3 M KCl. Currents were recorded in response to pulses between −80 and +40 mV at 20 mV intervals, or a single pulse to +40 mV, from a holding potential of −80 mV, to yield current-voltage relationships, current magnitude, and for quantifying activation rate. TEVC data analysis was performed with Clampfit10.2 (Molecular Devices) and Graphpad Prism software (GraphPad, San Diego, Calif., USA); values are stated as mean±SEM. Normalized tail currents were plotted versus prepulse voltage and fitted with a single Boltzmann function:
as §1
TEVC recording was performed at room temperature using a OC-725C amplifier (Warner Instruments, Hamden, Conn.) and pClamp8 software (Molecular Devices, Sunnyvale, Calif.) 2-5 days after cRNA injection as described in the section above. The oocytes were placed in a small-volume oocyte bath (Warner) and viewed with a dissection microscope. Unless otherwise stated, chemicals were sourced from Sigma. Bath solution was (in mM): 96 NaCl, 4 KCl, 1 MgCl2, 1 CaCl2, 10 HEPES (pH 7.6).

CS(=O)(=O)N(CC(=O)O)c1cccc(F)c1 [3FMSG]
effect on KCNQ2/KCNQ3-W265L (in words) (KCNQ2/KCNQ3-W265L): dependent on KCNQ3-W265; also recorded: eliminated effects of 3FMSG
EC50 (KCNQ5; Example 4, read-out: EC50 of KCNQ5 activation): 171 ± 112 nM

CCCCCCCCC/C=C/C=O [(E)-2-dodecenal]
maximal shift in ΔV0.5activation (KCNQ2/KCNQ3-W265L; (E)-2-dodecenal): −9 mV
EC50 (KCNQ2/KCNQ3-W265L; ΔV0.5activation, read-out: EC50 of (E)-2-dodecenal): 270 ± 20 nM

CC(=O)c1c(O)c(C)c(O)c(Cc2c(O)c3c(c(C(=O)/C=C/c4ccccc4)c2O)OC(C)(C)C=C3)c1O [MTX, mallotoxin]
shift of midpoint voltage of KCNQ5 activation (KCNQ5; MTX 30 μM): −14 mV
KCNQ5 current fold-increase (KCNQ5; −60 mV, 100 μM): eight-fold
EC50 (KCNQ5; −60 mV, read-out: EC50 of KCNQ5 activation): 67100 nM

NCC1(CC(=O)O)CCCCC1 [gabapentin, reference compound]
effect on KCNQ2/KCNQ3-W265L (in words) (KCNQ2/KCNQ3-W265L): insensitive
effect on KCNQ5 (in words) (KCNQ5): activated
maximal fold increase in KCNQ5 current (KCNQ5; −60 mV): 3 fold
EC50 (KCNQ5; −60 mV, read-out: EC50 of KCNQ5 activation by gabapentin): 1.9 nM

NCC(=O)O [glycine, reference compound]
effect on KCNQ5 (in words) (KCNQ5): no effects
